Test results taken from patent publication US10444229B2, “Method of measuring insulin resistance with fatty acid combustion, and composition used herein” (OTSUKA PHARMACEUTICAL CO., LTD., priority 2013, dated 2019).
Read-outs that look alike come from different tables or passages of the source.

Key:
[1] = 13C breath test after intravenous administration of 13C-labeled compounds to ZDF rats (Lean and Fatty), fasting or feeding (Experimental Example 2); conditions: for Δ13C(‰) of Fatty versus Lean rats: rat, in vivo, iv; for Δ13C(‰) in expired air, fasting state versus feeding state / transition of Δ13C(‰), Lean rats versus Fatty rats: intravenous; for transition of Δ13C(‰), Lean rats versus Fatty rats: ZDF rats, fasting and feeding groups
Excerpt: ZDF Fatty rat is an insulin-resistant test subject animal that has a low sensitivity to insulin, and develops a pathological condition similar to human adult type II diabetes and diabetes complication. In contrast, ZDF Lean rat is a healthy subject animal having normal blood glucose level and normal sensitivity to insulin. Lean and Fatty rats (A) were divided into a fasting group in which the rats were fasted from the previous day, and a feeding group. […] For (a) to (e), expired air was collected from rats (A), and for (f), expired air was collected and rats (B) (each group, n=3).
Expired air was obtained at time points (t minutes) from a time point before the administration of solutions (a) to (f) (0 minutes) to a time point 60 minutes after the administration, and Δ^13C(‰) was determined from ^13CO2 concentration in the expired air using an expired air analysis mass spectrometer (ABCA: product of SerCon).

[2] = fasted Zucker rats
Experimental: 1-^13C-sodium palmitate was dissolved in hydrous ethanol at about 80° C. at a concentration of 500 μmol/mL.
Rats (male, Zucker rat) were used as experimental animals. The rats that were fasted from the previous day of the test were divided into two groups: oral administration group and intravenous administration group (each group, n=3), and the 1-^13C-sodium palmitate solution (20 μmol/2 mL) prepared in (1) was orally and intravenously administered at a dosage of 2 mL/kg. Expired air was collected at each time point (t minutes) from a time point before administration (0 minutes) to a time point 180 minutes after the administration, and Δ^13C(‰) was determined from the concentration of ^13CO2 in the expired air using an expired air analysis mass spectrometer (ABCA: product of SerCon).
The value of Δ^13C(‰) was determined by measuring a concentration ratio ^13CO2/^12CO2 in the expired air (δ^13C value) at each time point (t minutes) from a time point before the 1-^13C-sodium palmitate administration (0 minutes) to a time point after the administration, and calculating the Δ^13C(‰) value from the difference between the δ^13C value (δ^13Ct) at each point (t) and the δ^13C value before the administration (δ^13Co) (δ^13Ct-δ^13Co) (the same calculation is used in the Experimental Examples below).

[3] = for Δ13C(‰) in expired air, fasting state versus feeding state: intravenous 2 ml/kg
Experimental: OLETF rats are type II diabetes test subject animal with obesity or/and fatty liver, and LETO rats serve as a control thereof (healthy subjects).
These rats were divided into a fasting group in which the rats were fasted from the previous day, and a feeding group. 1-^13C-sodium palmitate solution prepared in Experimental Example 2 was intravenously administered (2 ml/kg) to each group (each group, n=3). Expired air was collected at time points (t minutes) from a time point before the 1-^13C-sodium palmitate solution administration (0 minutes) to a time point 60 minutes after the administration, and Δ^13C(‰) was determined from the ^13CO2 concentration in the expired air using an expired air analysis mass spectrometer (ABCA: product of SerCon).

[4] = ZDF Fatty vs Lean and OLETF vs LETO, 11 weeks
Experimental: These rats were divided into a fasting group in which the rats were fasted from the previous day, and a feeding group. 1-^13C-sodium palmitate solution prepared in Experimental Example 2 was intravenously administered (2 ml/kg) to each group (each group, n=3).

[5] = ZDF Fatty rats (insulin-resistant)
[6] = ZDF Lean rats (healthy subjects)

Structure (SMILES) | Δ13C(‰) of Fatty versus Lean rats [1] | Δ13C(‰) in expired air, fasting state versus feeding state [1, 5] | Δ13C(‰) in expired air, fasting state versus feeding state [1, 6] | transition of Δ13C(‰), Lean rats versus Fatty rats [1] | other results
CCCCCCCCCCC[13C](=O)O [1-^13C-lauric acid] | higher than that of the healthy subjects (Lean) |  |  |  | 
CCCCCCCC/C=C\CCCCCCC[13C](=O)O [1-^13C-oleic acid] | higher than that of the healthy subjects (Lean) | higher in the fasting (hunger) state than in the feeding state | higher in the fasting (hunger) state than in the feeding state |  | 
C[13C](=O)[O-].[Na+] [1-^13C-sodium acetate, reference compound] |  |  |  | little difference between the results of Lean rats and the results of Fatty rats | 
CCCCCCC[13C](=O)[O-].[Na+] [1-^13C-sodium octanoate, reference compound] |  |  |  | little difference between the results of Lean rats and the results of Fatty rats | 
CCCCCCCCCCCCCCC[13C](=O)[O-].[Na+] [1-^13C-sodium palmitate] | higher than that of the healthy subjects (Lean) | higher in the fasting (hunger) state than in the feeding state | higher in the fasting (hunger) state than in the feeding state |  | excretion in expired air [2]: excreted in expired air as ^13CO2; time of Δ13C(‰) peak in expired air after administration ([2]; intravenous administration, 2 mL/kg of 20 μmol/2 mL): ≤ 10 min; transition of Δ13C(‰) in expired air ([2]; oral administration, 2 mL/kg of 20 μmol/2 mL, 0-180 minutes): little variation among respective measurement times; Δ13C(‰) in expired air, fasting state versus feeding state ([3]; LETO rats (healthy subjects)): higher in the fasting (hunger) state than in the feeding state; Δ13C(‰) in expired air, fasting state versus feeding state ([3]; OLETF rats (insulin-resistant, liver disease)): higher in the fasting (hunger) state than in the feeding state; Δ13C(‰) of OLETF versus LETO rats ([3]; fasting group and feeding group, period until 15 minutes after intravenous administration): higher than that of the healthy subjects (LETO); transition of Δ13C(‰), insulin-nonresistant hyperinsulinemia test subject versus healthy subject ([4]; fasting state): little difference; Δ13C(‰) value, insulin-nonresistant hyperinsulinemia test subject versus healthy subject ([4]; feeding state): significantly lower than that of the healthy subject
